According to patent publication US20130109682A1, “CYCLIC ETHER COMPOUNDS USEFUL AS KINASE INHIBITORS” (NOVARTIS AG, priority 2010, published 2013):

Key:
PIM3 = PIM3 (Homo sapiens, UniProt Q86V86); assay: KinaseGlo Pim3 ATP depletion assay; type: biochemical
Method in brief: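 Kinase was preincubated 15 min with BAD peptide in HEPES pH 7.5/MgCl2/DTT/BSA before ATP was added. Final concentrations were 40 μM ATP, 100 μM BAD peptide and 2.5% DMSO, with 5 nM enzyme. The reaction ran to ~50% ATP depletion and remaining ATP was read by KinaseGlo Plus luminescence.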

GSK3β = GSK3β (Homo sapiens, UniProt P49841); assay: GSK3β ATP depletion assay; type: biochemical; conditions: read-out: GSK3b IC50
Chain of GSK3β (P49841 whole entry, species assumed): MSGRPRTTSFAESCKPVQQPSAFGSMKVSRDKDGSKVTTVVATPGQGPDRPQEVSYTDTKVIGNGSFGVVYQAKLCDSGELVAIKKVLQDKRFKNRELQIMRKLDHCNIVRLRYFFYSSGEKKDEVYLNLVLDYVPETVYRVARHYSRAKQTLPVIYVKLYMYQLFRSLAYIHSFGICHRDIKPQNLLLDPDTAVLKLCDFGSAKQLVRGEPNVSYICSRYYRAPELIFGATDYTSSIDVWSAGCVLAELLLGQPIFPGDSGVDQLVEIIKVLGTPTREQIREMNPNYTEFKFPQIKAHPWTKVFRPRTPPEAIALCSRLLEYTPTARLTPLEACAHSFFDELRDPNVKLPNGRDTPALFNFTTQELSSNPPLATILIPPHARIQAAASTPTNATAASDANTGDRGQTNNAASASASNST
Method in brief: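 Human GSK3β (5 nM) preincubated 15 min with 10 μM biotinylated phospho-CREB peptide in pH 7.5 Tris buffer (15 mM MgCl2, 1 mM DTT, 0.1% BSA, 2.5% DMSO). Reaction started with 2 μM ATP and run to about 50% ATP depletion. Remaining ATP measured by KinaseGlo luminescence.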

[1] = tested on: KMS11 (human myeloma cell line); assay: Cell proliferation assay (CellTiter-Glo), KMS11; type: cell-based; conditions: Homo sapiens, KMS-11; KMS11-Luc cells
Method in brief: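 KMS11 cells in IMDM with 10% FBS and sodium pyruvate, seeded at 2000 cells/well on assay day. Compound added at 2× to equal volume of cells, incubated 3 days at 37° C. Viability read by CellTiter-Glo luminescence; EC50 derived.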

PIM1 = PIM1 (Homo sapiens, UniProt P11309); assay: KinaseGlo Pim1 ATP depletion assay; type: biochemical
Chain of PIM1 (P11309 whole entry): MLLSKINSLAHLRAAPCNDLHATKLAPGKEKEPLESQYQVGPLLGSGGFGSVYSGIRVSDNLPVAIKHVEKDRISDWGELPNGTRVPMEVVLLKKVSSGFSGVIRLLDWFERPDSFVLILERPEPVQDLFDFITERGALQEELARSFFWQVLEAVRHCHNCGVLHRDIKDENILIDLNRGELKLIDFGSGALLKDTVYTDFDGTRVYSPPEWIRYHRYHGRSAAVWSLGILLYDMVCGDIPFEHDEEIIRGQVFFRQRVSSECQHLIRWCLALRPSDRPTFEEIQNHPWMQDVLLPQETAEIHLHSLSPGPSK
Method in brief: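 2.5 nM PIM1 preincubated 15 min with compound and 40 μM BAD peptide in 50 mM HEPES pH 7.5, 5 mM MgCl2, 1 mM DTT, 0.05% BSA, 2.5% DMSO. The reaction was started with 20 μM ATP (final) and run to about 50% ATP depletion. Remaining ATP read by KinaseGlo Plus luminescence to give IC50.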

PIM2 = PIM2 (Homo sapiens, UniProt Q9P1W9); assay: KinaseGlo Pim2 ATP depletion assay; type: biochemical
Chain of PIM2 (Q9P1W9 whole entry): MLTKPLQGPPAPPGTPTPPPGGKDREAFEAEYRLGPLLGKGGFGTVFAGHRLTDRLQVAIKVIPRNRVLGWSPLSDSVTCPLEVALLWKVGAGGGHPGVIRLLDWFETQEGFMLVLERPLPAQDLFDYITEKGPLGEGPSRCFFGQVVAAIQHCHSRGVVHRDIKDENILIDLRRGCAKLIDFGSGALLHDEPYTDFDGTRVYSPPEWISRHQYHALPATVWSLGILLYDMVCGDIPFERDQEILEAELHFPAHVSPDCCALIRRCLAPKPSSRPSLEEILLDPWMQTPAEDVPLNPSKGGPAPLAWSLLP
Method in brief: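 Luminescent ATP-depletion read-out of PIM2 phosphorylating BAD peptide (RSRHSSYPAGT-OH). Final conditions: 5 nM PIM2, 4 μM ATP, 10 μM peptide, 2.5% DMSO in 50 mM HEPES pH 7.5, 5 mM MgCl2, 1 mM DTT, 0.05% BSA. Enzyme–peptide preincubated 15 min with compound; reaction run to ~50% ATP depletion.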

SMILES | IC50 (PIM3) [nM] | IC50 (GSK3β) [nM] | EC50 [1] [nM] | IC50 (PIM1) [nM] | IC50 (PIM2) [nM]
CC[C@]1(O)[C@H](O)C[C@H](c2ccncc2NC(=O)c2nc(-c3ccnnc3)ccc2N)O[C@@H]1C [Example 160, 3-amino-N-(4-((2R,4R,5S,6R)-5-ethyl-4,5-dihydroxy-6-methyltetrahydro-2H-pyran-2-yl)pyridin-3-yl)-6-(pyridazin-4-yl)picolinamide] | 260 | 67.4 | > 10000 | 166 | 1640
C=C[C@H]1O[C@@H](c2ccncc2NC(=O)c2nc(-c3c(F)cccc3F)ncc2N)C[C@@H](O)[C@@H]1O [Example 161, 5-amino-2-(2,6-difluorophenyl)-N-(4-((2R,4R,5S,6R)-4,5-dihydroxy-6-vinyltetrahydro-2H-pyran-2-yl)pyridin-3-yl)pyrimidine-4-carboxamide] | 15.8 | 1430 | > 10000 | 32.8 | 22.3
CC[C@H]1O[C@@H](c2ncncc2NC(=O)c2ccc(F)c(-c3c(F)cccc3F)n2)C[C@@H](O)[C@@H]1O [Example 162, 6-(2,6-difluorophenyl)-N-(4-((2R,4R,5S,6R)-6-ethyl-4,5-dihydroxytetrahydro-2H-pyran-2-yl)pyrimidin-5-yl)-5-fluoropicolinamide] | 178 | 13500 | > 10000 | 216 | 818
CC[C@H]1O[C@@H](c2ccncc2NC(=O)c2ccc(F)c(-c3c(F)cccc3F)n2)C[C@@H](O)[C@]1(C)O [Example 164, 6-(2,6-difluorophenyl)-N-(4-((2R,4R,5S,6R)-6-ethyl-4,5-dihydroxy-5-methyltetrahydro-2H-pyran-2-yl)pyridin-3-yl)-5-fluoropicolinamide] | 1.6 | 2070 | 2760 | 0.8 | 1.9
CC[C@@H]1O[C@H](c2ccncc2NC(=O)c2nc(-c3c(F)cccc3F)c(F)cc2N)C[C@H](O)[C@@]1(C)O [Example 165, 3-amino-6-(2,6-difluorophenyl)-N-(4-((2S,4S,5R,6S)-6-ethyl-4,5-dihydroxy-5-methyltetrahydro-2H-pyran-2-yl)pyridin-3-yl)-5-fluoropicolinamide] | 35.9 | 2680 | > 10000 | 9 | 67.7
CC[C@H]1O[C@@H](c2ccncc2NC(=O)c2nc(-c3c(F)cccc3F)c(F)cc2N)C[C@@H](O)[C@]1(C)O [Example 166, 3-amino-6-(2,6-difluorophenyl)-N-(4-((2R,4R,5S,6R)-6-ethyl-4,5-dihydroxy-5-methyltetrahydro-2H-pyran-2-yl)pyridin-3-yl)-5-fluoropicolinamide] | 1.5 | 1680 | 1330 | 0.6 | 1.2
CC[C@@H]1O[C@H](c2ccncc2NC(=O)c2nc(-c3c(F)cccc3F)ncc2N)C[C@H](O)[C@@]1(C)O [Example 167, 5-amino-2-(2,6-difluorophenyl)-N-(4-((2S,4S,5R,6S)-6-ethyl-4,5-dihydroxy-5-methyltetrahydro-2H-pyran-2-yl)pyridin-3-yl)pyrimidine-4-carboxamide] | 86.7 | 3410 | > 10000 | 65.5 | 92
CC[C@H]1O[C@@H](c2ccncc2NC(=O)c2nc(-c3c(F)cccc3F)ncc2N)C[C@@H](O)[C@]1(C)O [Example 168, 5-amino-2-(2,6-difluorophenyl)-N-(4-((2R,4R,5S,6R)-6-ethyl-4,5-dihydroxy-5-methyltetrahydro-2H-pyran-2-yl)pyridin-3-yl)pyrimidine-4-carboxamide] | 2.7 | 1030 | 5900 | 3 | 2.3
CCC[C@H]1O[C@@H](c2ccncc2NC(=O)c2nc(-c3c(F)cccc3F)ncc2N)C[C@@H](O)[C@@H]1O [Example 169, 5-amino-2-(2,6-difluorophenyl)-N-(4-((2R,4R,5S,6R)-4,5-dihydroxy-6-propyltetrahydro-2H-pyran-2-yl)pyridin-3-yl)pyrimidine-4-carboxamide] | 13.2 | 1660 | > 10000 | 14.4 | 9.3
O=C(Nc1cnccc1[C@H]1C[C@@H](O)[C@@]2(O)CCCC[C@H]2O1)c1ccc(F)c(-c2c(F)cccc2F)n1 [Example 174, 6-(2,6-difluorophenyl)-N-(4-((2R,4R,4aS,8aR)-4,4a-dihydroxyoctahydro-2H-chromen-2-yl)pyridin-3-yl)-5-fluoropicolinamide] | 1.6 | 19.8 | 2630 | 0.5 | 1.3
Nc1cnc(-c2c(F)cccc2F)nc1C(=O)Nc1cnccc1[C@@H]1C[C@H](O)[C@]2(O)CCCC[C@@H]2O1 [Example 175, 5-amino-2-(2,6-difluorophenyl)-N-(4-((2S,4S,4aR,8aS)-4,4a-dihydroxyoctahydro-2H-chromen-2-yl)pyridin-3-yl)pyrimidine-4-carboxamide] | 57.4 | 598 | > 10000 | 35.7 | 58.7
O=C(Nc1cnccc1[C@@H]1C[C@H](O)[C@]2(O)CCCC[C@@H]2O1)c1ccc(F)c(-c2c(F)cccc2F)n1 [Example 177, 6-(2,6-difluorophenyl)-N-(4-((2S,4S,4aR,8aS)-4,4a-dihydroxyoctahydro-2H-chromen-2-yl)pyridin-3-yl)-5-fluoropicolinamide] | 162 | 1060 | 6830 | 38.6 | 171
CC[C@]1(O)[C@H](O)C[C@H](c2ccncc2NC(=O)c2c[nH]cc(-c3ccccc3)c2=O)O[C@@H]1C [Example 179, N-(4-((2R,4R,5S,6R)-5-ethyl-4,5-dihydroxy-6-methyltetrahydro-2H-pyran-2-yl)pyridin-3-yl)-4-oxo-5-phenyl-1,4-dihydropyridine-3-carboxamide] | 132 | 2690 | > 10000 | 259 | 3080
Nc1cnc(-c2c(F)cccc2F)nc1C(=O)Nc1cnccc1[C@H]1C[C@@H](O)[C@@]2(O)CCC[C@H]2O1 [Example 180, 5-amino-2-(2,6-difluorophenyl)-N-(4-((2R,4R,4aS,7aR)-4,4a-dihydroxyoctahydrocyclopenta[b]pyran-2-yl)pyridin-3-yl)pyrimidine-4-carboxamide] | 7.2 | 101 | > 10000 | 8.4 | 10.6
O=C(Nc1cnccc1[C@H]1C[C@@H](O)[C@@]2(O)CCC[C@H]2O1)c1c[nH]cc(-c2ccccc2)c1=O [Example 181, N-(4-((2R,4R,4aS,7aR)-4,4a-dihydroxyoctahydrocyclopenta[b]pyran-2-yl)pyridin-3-yl)-4-oxo-5-phenyl-1,4-dihydropyridine-3-carboxamide] | 492 | 4210 | > 10000 | 825 | 9100
Nc1cnc(-c2c(F)cccc2F)nc1C(=O)Nc1cnccc1[C@@H]1C[C@H](O)[C@]2(O)CCC[C@@H]2O1 [Example 182, 5-amino-2-(2,6-difluorophenyl)-N-(4-((2S,4S,4aR,7aS)-4,4a-dihydroxyoctahydrocyclopenta[b]pyran-2-yl)pyridin-3-yl)pyrimidine-4-carboxamide] | 951 | 2670 | > 10000 | 539 | 2780
O=C(Nc1cnccc1[C@@H]1C[C@H](O)[C@]2(O)CCC[C@@H]2O1)c1c[nH]cc(-c2ccccc2)c1=O [Example 184, N-(4-((2S,4S,4aR,7aS)-4,4a-dihydroxyoctahydrocyclopenta[b]pyran-2-yl)pyridin-3-yl)-4-oxo-5-phenyl-1,4-dihydropyridine-3-carboxamide] | > 25000 | > 25000 | > 10000 | > 25000 | > 25000
O=C(Nc1cnccc1[C@@H]1C[C@H](O)[C@]2(O)CCC[C@@H]2O1)c1ccc(F)c(-c2c(F)cccc2F)n1 [Example 188, 6-(2,6-difluorophenyl)-N-(4-((2S,4S,4aR,7aS)-4,4a-dihydroxyoctahydrocyclopenta[b]pyran-2-yl)pyridin-3-yl)-5-fluoropicolinamide] | 144 | 731 | > 10000 | 34.5 | 318
